US6984729B1, “Oligonucleotides specific for hepatitis B virus” (priority 1995, dated 2006)
Entries after “also recorded” stand apart in the source; their conditions may differ.

Columns and labels:
[1] = tested on: replicative intermediate (RI) HBV DNA in HepG2.2.15 cells; test: Southern hybridization viral assay in HepG2.2.15 cells; type: cell-based, hepatitis B virus; conditions: titrated concentrations, FIGS. 11, 12
Text: The activity of antisense oligonucleotides was also studied in a viral assay in HepG2.2.15 cells, which have been stably transfected with plasmids carrying whole HBV genomes (Sells et al. (1987) Proc. Nat. Acad. Sci. 84:1005–1009; Sureau et al. (1986) Cell 47:37–47). […] A more definitive test is Southern hybridization, which provides data concerning the character of the detected DNA in addition to quantitation. This assay has been described previously for the screening of anti-HBV compounds on HepG2.2.15 cells (Doong et al. (1991) Proc. Nat. Acad. Sci. (USA) 88:8495–8499). In view of the many potential sources of HBV DNA from transfected cells, this assay allows for a more meaningful interpretation of results than the other methods mentioned.
The cell line HepG2.2.15 (Sells et al. (1988) J. Virol. 62:2836–2844) was routinely cultured in RPMI.1640 medium (Life Technologies Ltd., Paisley, Scotland) supplemented with 10% fetal bovine serum (FBS), 100 U/ml penicillin, and 150 μg/ml streptomycin. Cultures were replaced after 10 passages with cells freshly cultured from a mycoplasma-free frozen stock. Cultures were maintained at 37° C. in a humidified atmosphere of 5% CO2 in air.
Cells were cultured in 6-well plates at 10^6 cells/well in 4 ml medium (RPMI.1640 as above but supplemented with 5% FBS) and maintained as above. […]

[2] = tested on: internally 32P-labelled HBV precore-core RNA (epsilon region); test: RNase H cleavage of HBV precore-core RNA with noncontiguous oligonucleotides targeted to the epsilon region; type: biochemical, hepatitis B virus
Experimental: To determine whether an oligonucleotide of the invention is capable of successfully hybridizing to its target, an RNase H assay was performed (Frank et al. (1993) Proc. Int. Conf. Nucleic Acid Med. Applns. 1:4.14(abstract)). This assay is useful when a region of at least four contiguous nucleotides of the oligonucleotide is DNA and the target is RNA. Hybridization of the DNA portion of the oligonucleotide to the RNA target is identified by cleavage at that site by RNase H.
Noncontiguous oligonucleotides targeted to the HBV epsilon region have also been prepared and tested. The epsilon region is characterized by an RNA stem-loop structure consisting primarily of double-stranded RNA with a single-stranded bulge and loop of 6 bases each (FIG. 3). […] The ability of RNase H to cleave an RNA in this manner inflicts greater damage on the RNA than normal antisense oligodeoxynucleotides, while allowing the targeting of a biologically important region that is otherwise difficult to target due to its double-stranded nature.
Based on this information, several oligodeoxynucleotide phosphorothioates were prepared to test the hypothesis that hybridization by mode B is preferred when spanning the base of an RNA stem. 20mer and 24mer noncontiguous oligonucleotides (Table 2) were prepared as well as the 10mers and 12mers corresponding to the “arms” of the noncontiguous sequences.
If a single oligodeoxynucleotide were able to bind across the base of epsilon to sequences on either side of the stem, RNase H might cleave both sites and effectively cut out the epsilon stem-loop from the RNA. […] The 12+12 noncontiguous phosphorothioates show the same ability to bind across the base of the RNA stem. […] Double cleavage of the transcript in the presence of the mixture of 12mer arms (HBV71+HBV72) was much slower (FIG. 6B).
When oligonucleotides hybridizing via mode B were lengthened to allow strand invasion of the RNA stem, disruption of the stem-loop structure occurred. Oligonucleotides HBV89 (SEQ ID NO:39), HBV90 (SEQ ID NO:40), and HBV91 (SEQ ID NO:41) bind across the base of epsilon via mode B and strand invade on either the 5 side (HBV89) or the 3′ side (HBV90 and HBV91) of the RNA stem. HBV89M is an extension of HBV64M with ten 2′-O-methyl RNA residues invading the RNA stem on the 5′-side. Addition of these strand invading nucleotides increased the cleavage efficiency from 23% to 32% at 100 nM oligonucleotide.
Uniformally ^32P-labelled RNA was prepared from 1 μg linearized plasmid using the Ambion MEGAscript In Vitro Transcription Kit (Ambion, Inc., Austin, Tex.) according to the manufacturers' instructions, using [α-^32p] CTP as the radioactive label. The RNA was treated with RNase-free DNase I (Ambion, Inc., Austin, Tex.), extracted with phenol:chloroform: isoamyl alcohol (25:24:1) and purified from nucleotides and nucleosides on a G-50 Sephadex spin column (Boehringer-Mannheim, Indianapolis, Ind., or Pharmacia, Uppsala, Sweden).
In 9 μl 1× RNase H buffer (40 mM Tris-HCl pH 7.4, 4 mM MgCl2, 1 mM DTT), 20–100 nM labelled RNA and 100 nM oligonucleotides were preincubated for 15 min at 37° C. 1 μl RNase H (1 U/μl) was added, and the reaction was incubated at 37° C. for 10 min. The reactions were quenched and analyzed as described above.
Quantitation of the cleavage products was performed using software supplied with the Phosphorimager (Molecular Dynamics, Sunnyvale, Calif., or Bio-Rad Laboratories, Hercules, Calif.). “Counts” were determined by drawing a box around the band of interest and subtracting the background determined with a box drawn nearby. Counts in a product band were compared to total counts in the lane above that band to determine % cleavage.

parent pGLori sequence = test: Firefly luciferase reporter gene assay in HepG2 cells stably transfected with parent construct (control); type: cell-based
Experimental: Oligonucleotides targeted to the polymerase translation initiation region were also tested in mammalian cells using a firefly luciferase reporter gene assay. The 35 nucleotide region spanning the translation start site of the HBV ayw polymerase gene from nt 2294–2328 was cloned 5′ to, and in frame with, the entire open reading frame of the firefly luciferase gene in the plasmid pGLori, to produce the plasmid pGLpol (FIG. 10). Transcription of this pol-luciferase gene fusion was placed under the control of the cytomegalovirus early gene promoter. Expression of the pol-luciferase fusion in mammalian cells was quantified in a luminometer by addition of luciferin substrate and ATP cofactor to cell lysates. In all cellular antisense assays, a random sequence 20mer phosphorothioate oligonucleotide (random 20mer PS) was used as a negative control. […]
Stably transfected HepG2 cells were seeded into 96 well plates. […] Cells were washed twice with Dulbecco's phosphate-buffered saline (PBS) and lysed in 50 μl cell lysis buffer (Analytical Luminescence Laboratory, San Diego, Calif.). Luciferase activity was measured in 20 μl lysate using Analytical Luminescence Laboratory substrates in a MicroLumat LB 96 P luminometer (EG&G Berthold, Nashua, N.H.).

Substance | inhibition of the formation of replicative intermediate (RI) HBV DNA [1] | total RNA cleavage by RNase H ([2]; 10+10 and 12+12 noncontiguous oligonucleotides versus mixtures of arms, FIGS. 5A, 6A) | double cleavage (twice cleaved product) by RNase H on both sides of the epsilon stem ([2]; FIGS. 5B, 6B) | antisense activity on luciferase expression, parent pGLori (parent pGLori sequence)
ACCCAAGGCACAGCTTGGAG (phosphorothioate, further chemistry not given here) [HBV6] | significant inhibition |  |  | 
AGGCAGAGGTGATATAAGGGTCGA (chemistry not given here) [HBV67] | Inhibition was also found | equal | efficiently activate RNase H cleavage on both sides of the stem after only 1.5 minutes; also recorded: slightly more cleavage than mode A (HBV79) | 
Luc +1–+20: 20mer phosphorothioate antisense oligonucleotide targeting the first 20 nucleotides of the firefly luciferase coding region, positive control, SEQ ID NO:50 (antisense ATGTTTTTGGCGTCTTCCAT; all phosphorothioate, sugars by position and methylation of C not given here) |  |  |  | exhibited antisense activity
